Key:
[1] = Change of blood pressure, intravenous administration, anesthetized dog; assay type: in vivo; design: unit not given here; details: femoral artery
Procedure: The change of blood flow in coronary artery and the change of blood pressure were measured by a method according to Yakura et al., [Japan Journal of Pharmacology, Vol. 57, pages 380-391 (1961)] and according to Taira, et al. [Clin. Exp. Pharmacol. Physiol., Vol. 6, pages 301-316, (1976)].
An adult bastard dog of either sex weighing 8-13 kg was anesthetized with sodium pentobarbital at the rate of 30 mg/kg by intraveneous administration, then the dog was fixed in supination and was theracotomized under a condition of forced breathing. After another intraveneous administration of sodium heparin at the rate of 500 U/kg, 100 U/kg per hour, the dog was subjected to the following experiments.
(2) Intraveneous administration
Morawitz's cannula was cannulated to the coronary sinus venosus through the auricula dextra cordis, and the blood in vein was circulated to the right carotid. The blood flow was measured by an electromagnetic blood flow meter equipped with a blood flow observation probe in the extracorporeal circulation path of the vein. The systolic force was measured by a systolometer (pick-up) placed at the left ventricle of heart, the blood pressure was measured from the femoral artery, and the heart rate was measured from the pulse. A compound to be tested was administered through the cannula being cannulated in femoral vein. The increased amount of the blood flow in coronary artery after the administration of the test compound is shown in Table 4, also the change of blood pressure is shown in Table 5.

[2] = system: collagen-induced aggregation in rabbit platelets; experiment: Inhibition of collagen-induced platelet aggregation in rabbit platelet rich plasma; assay type: cell-based; details: Oryctolagus cuniculus, read-out: Inhibition rate of collagen-induced aggregation; for inhibition at 100 µM (stock): Concentration of the test compound solution 10^-4 mole; for inhibition at 10 µM (stock): Concentration of the test compound solution 10^-5 mole
Procedure: (§1) The platelet aggregation inhibitory effect was measured by using a Platelet Aggregation Tracer Model PAT-6M (manufactured by Nikoh Bio-Science Co., Ltd.) by a method according to Kimura, et al., [IGAKU-NO-AYUMI (Progress in Medicine), Vol. 114, No. 9, pp. 718-727, Aug. 30, 1980, and Nature, pp. 927-929, 1962].
(§2) The blood sample used for the test was a 1:9 (by volume) mixture of "3.8%-CITRATE"® (a registered trademark for 3.8%-sodium citrate, manufactured by Green Cross Corp.) and whole blood collected from rabbits. Said sample was subjected to 10-minute centrifugal separation at 1,000 r.p.m. (200xG) to obtain a platelet rich plasma (PRP). The PRP thus obtained was separated, and the remaining blood sample was further subjected to 15-minute centrifugal separation at 3,000 r.p.m. (2,000xG) to obtain a platelet poor plasma (PPP).
(§3) The number of platelets in the PRP was counted by the Brecher-Clonkite Method, and the PRP was diluted with the PPP to prepare a PRP sample with a platelet concentration of 600,000/microliter to prepare for an adenosine diphosphate (ADP)-induced aggregation test, and a collagen-induced aggregation test. 0.2 Milliliter of the PRP sample was added to 2 microliters of a solution of a test compound of predetermined concentration and this mixture was placed in a 37° C. thermostat for one minute. Then 20 microliters of an ADP or collagen solution was added to the mixture. In this test, the ADP solution was prepared by adjustment to a concentration of 7.5×10^-5 M by using Auren-Beronal buffer solution (pH 7.35). Further, the collagen solution was prepared by adjustment to a concentration of 200 micrograms/ml by using collagen reagent of "Holm"® (manufactured by Hormon-Chemie Munchen, GmbH.) which was diluted wih a physiological saline solution.
(§4) The transmittance of the resultant test mixture was determined and the change of transmittance was recorded by using the aggregometer at a stirrer speed of 1,100 r.p.m.
(§5) The platelet aggregation inhibitory effect of the test compound was measured in terms of inhibition rate (%) with respect to the aggregation rate of the controls. The aggregation rate was calculated from the following formula.
(§6) Aggregation rate=[(c-a)/(b-a)]×100
(§7) The percent inhibition is calculated from the following formula.
(§8) Inhibition rate (%)=[(A-B)/A]×100
(§9) The inhibitory effect of the test compounds on collagen-induced aggregation in rabbit platelets is shown in Table 1, similarly such effect on ADP-induced aggregation in rabbit platelets is shown in Table 2.

[3] = system: ADP-induced aggregation in rabbit platelets; experiment: Inhibition of ADP-induced platelet aggregation in rabbit platelet rich plasma; assay type: cell-based; details: Oryctolagus cuniculus, read-out: Inhibition rate of ADP-induced aggregation; for inhibition at 100 µM (stock): Concentration of the test compound solution 10^-4 mole; for inhibition at 10 µM (stock): Concentration of the test compound solution 10^-5 mole
Procedure: as §1, §2, §3, §4, §5, §6, §7, §8, §9

In the case of `C=CCOc1ccc(OCCCCOC(=O)C2=C(C)NC(C)=C(C(=O)OC)C2c2cccc([N+](=O)[O-])c2)c2c1NC(=O)CC2` (stereo not drawn) [Compound 19, 5-{4-[2,6-Dimethyl-5-methoxycarbonyl-4-(3-nitrophenyl)-1,4-dihydropyridin-3-carboxy]-butoxy}-8-alloyloxy-3,4-dihydrocarbostyril], the “Change of blood pressure” value ([1]; 3 micrograms/kg) is reported as -22, the “Change of blood pressure” value ([1]; 10 micrograms/kg) is reported as -34 and the “Change of blood pressure” value ([1]; 30 micrograms/kg) is reported as -44. For the same molecule, the “Change of blood pressure” value ([1]; 100 micrograms/kg) was -55, the inhibition at 100 µM (stock) [2] was 17% and the inhibition at 100 µM (stock) [3] was 17%.

For `COC(=O)C1=C(C)NC(C)=C(C(=O)OCCOc2ccc3[nH]c(=O)ccc3c2)C1c1ccccc1[N+](=O)[O-]` (stereo not drawn) [Compound 20, 6-{2-[2,6-Dimethyl-5-methoxycarbonyl-4-(2-nitrophenyl)-1,4-dihydropyridin-3-carboxy]-ethoxy}carbostyril], the “Change of blood pressure” value ([1]; 30 micrograms/kg) was -4, the “Change of blood pressure” value ([1]; 100 micrograms/kg) was -8 and the “Change of blood pressure” value ([1]; 300 micrograms/kg) was -32. The inhibition at 100 µM (stock) [2] was 100%, the inhibition at 10 µM (stock) [2] was 100% and the inhibition at 100 µM (stock) [3] was 100%. The inhibition at 10 µM (stock) [3] was 65%.

In the case of `COC(=O)C1=C(C)NC(C)=C(C(=O)OCCOc2ccc3c(c2)CCC(=O)N3)C1c1ccccc1[N+](=O)[O-]` (stereo not drawn) [Compound 21, 6-{2-[2,6-Dimethyl-5-methoxycarbonyl-4-(2-nitrophenyl)-1,4-dihydropyridin-3-carboxy]-ethoxy}-3,4-dihydrocarbostyril], the “Change of blood pressure” value ([1]; 10 micrograms/kg) is reported as -7, the “Change of blood pressure” value ([1]; 30 micrograms/kg) is reported as -12 and the “Change of blood pressure” value ([1]; 100 micrograms/kg) is reported as -28. For the same molecule, the “Change of blood pressure” value ([1]; 300 micrograms/kg) was -42, the inhibition at 100 µM (stock) [2] was 100% and the inhibition at 10 µM (stock) [2] was 99%. For the same molecule, the inhibition at 100 µM (stock) [3] was 58% and the inhibition at 10 µM (stock) [3] was 27%.

With `COC(=O)C1=C(C)NC(C)=C(C(=O)OCCCOc2cccc3[nH]c(=O)ccc23)C1c1cccc([N+](=O)[O-])c1` (stereo not drawn) [Compound 22, 5-{3-[2,6-Dimethyl-5-methoxycarbonyl-4-(3-nitrophenyl)-1,4-dihydropyridin-3-carboxy]-propoxy}carbostyril] the “Change of blood pressure” value ([1]; 10 micrograms/kg) was -2, the “Change of blood pressure” value ([1]; 30 micrograms/kg) was -8 and the “Change of blood pressure” value ([1]; 100 micrograms/kg) was -18. The “Change of blood pressure” value ([1]; 300 micrograms/kg) was -36, the inhibition at 100 µM (stock) [2] was 100% and the inhibition at 10 µM (stock) [2] was 21%. It also gave an inhibition at 100 µM (stock) [3] of 62% and an inhibition at 10 µM (stock) [3] of 13%.

For `COC(=O)C1=C(C)NC(C)=C(C(=O)OCCCCOc2ccc3[nH]c(=O)ccc3c2)C1c1ccccc1C(F)(F)F` (stereo not drawn) [Compound 24, 6-{4-[2,6-Dimethyl-5-methoxycarbonyl-4-(2-trifluoromethylphenyl)-1,4-dihydropyridin-3-carboxy]butoxy}carbostyril], the “Change of blood pressure” value ([1]; 10 micrograms/kg) was -6, the “Change of blood pressure” value ([1]; 30 micrograms/kg) was -18 and the “Change of blood pressure” value ([1]; 100 micrograms/kg) was -30. The “Change of blood pressure” value ([1]; 300 micrograms/kg) was -44, the inhibition at 100 µM (stock) [2] was 100% and the inhibition at 10 µM (stock) [2] was 30%. For the same molecule, the inhibition at 100 µM (stock) [3] was 100% and the inhibition at 10 µM (stock) [3] was 62%.

For `COC(=O)C1=C(C)NC(C)=C(C(=O)OCCCCOc2ccc3c(c2)CCC(=O)N3)C1c1ccccc1SC` (stereo not drawn) [Compound 26, 6-{4-[2,6-Dimethyl-5-methoxycarbonyl-4-(2-methylthiophenyl)-1,4-dihydropyridin-3-carboxy]butoxy}-3,4-dihydrocarbostyril], the “Change of blood pressure” value ([1]; 10 micrograms/kg) was -6, the “Change of blood pressure” value ([1]; 30 micrograms/kg) was -10 and the “Change of blood pressure” value ([1]; 100 micrograms/kg) was -21. The “Change of blood pressure” value ([1]; 300 micrograms/kg) was -42, the inhibition at 100 µM (stock) [2] was 100% and the inhibition at 10 µM (stock) [2] was 19%. The inhibition at 100 µM (stock) [3] was 87% and the inhibition at 10 µM (stock) [3] was 22%.

For `COC(=O)C1=C(C)NC(C)=C(C(=O)OCCCCOc2ccc3c(c2)CCC(=O)N3)C1c1ccccc1Cl` (stereo not drawn) [Compound 27, 6-{4-[2,6-Dimethyl-5-methoxycarbonyl-4-(2-chlorophenyl)-1,4-dihydropyridin-3-carboxy]-butoxy}-3,4-dihydrocarbostyril], the “Change of blood pressure” value ([1]; 3 micrograms/kg) was -4, the “Change of blood pressure” value ([1]; 10 micrograms/kg) was -10 and the “Change of blood pressure” value ([1]; 30 micrograms/kg) was -27. The “Change of blood pressure” value ([1]; 100 micrograms/kg) was -52, the inhibition at 100 µM (stock) [2] was 61% and the inhibition at 100 µM (stock) [3] was 42%.

Source: US4564619A, “Carbostyril derivative” (Otsuka Pharmaceutical Co., Ltd., priority 1982, dated 1986)
